Read-outs that look alike come from different tables or passages of the source. Non-standard residues stand in square brackets, D forms with d. Residues, ends and D or L forms follow the SMILES beside them. 1Nal = N[C@@H](Cc1cccc2ccccc12)C(=O)O; d1Nal = N[C@H](Cc1cccc2ccccc12)C(=O)O; d2Nal = N[C@H](Cc1ccc2ccccc2c1)C(=O)O
What was measured:
Human melanocytes = experiment: Test on suppression of the melanin formation caused by human melanocytes (MSH added); type: cell-based; conditions: for Melanin formation suppressing activity (evaluation class): class of minimum concentration showing melanin formation suppressing activity; for Suppression rate of the melanin formation: human melanocytes + MSH, 6th day
Description: Human melanocytes in logarithmic growth phase were treated with trypsin and inoculated to a 6-well plate with “Medium 154s” (manufactured by Kurabo Industries Ltd., containing a growth factor (HMGS)), in an amount of 1.5×10^5 per 1 well in terms of cell number. The cells were cultured at 37° C. in a carbon dioxide incubator, the CO2 concentration being 5%, for 1 day. Thereafter, rinsing was carried out with the use of HBS (Hepes Buffer Saline), followed by medium replacement with “MCDB153” (containing fetal bovine serum, insulin, b-FGF, transferrin, and tocopherol), and followed by culturing for further 2 days. A whitening agent (containing a compound to be tested) was prepared with “MCDB153” (containing fetal bovine serum, insulin, b-FGF, transferrin, and tocopherol)+melanocyte-stimulating hormone in such way that the concentration would be 200 μM, 20 μM, or 2 μM, and was added to the 6-well plate. Also, a further 6-well plate culture was carried out with the use of “MCDB153” (containing fetal bovine serum, insulin, b-FGF, transferrin, and tocopherol)+melanocyte-stimulating hormone without the whitening agent, and still further a 6-well plate culture was carried out with the use of “MCDB153” (containing fetal bovine serum, insulin, b-FGF, transferrin, and tocopherol) alone, at the same time. The medium replacement with the above “MCDB153” (containing fetal bovine serum) containing a whitening agent was carried out twice every 2 days.
After the first addition of the whitening agent, the effect of suppressing the melanin formation was confirmed on the 6th day. Namely, the medium on each 6-well plate was removed by suction, and the wells were rinsed with HBS. Thereafter, the 6-well plate was air-dried, and ⅕M NaOH (230 μl) was added to the wells to dissolve the melanin out of the melanocytes. The solution (200 μl) was evaluated by Abs (absorbance) on a microplate reader (475 nm). The suppression rate of the melanin formation by each compound tested was calculated according to the following equation (1). The suppression rate of the melanin formation(%)={1−(A1−A3)/(A2−A3)}×100 (1) • A1: absorbance at 475 nm when both of the compound to be tested and MSH were added. • A2: absorbance at 475 nm when the compound to be tested was not added and MSH was added. • A3: absorbance at 475 nm when both of the compound to be tested and MSH were not added.

B16 melanoma cells = experiment: Measurement of 50% inhibitory concentration of cAMP production (IC50) with 10 nM melanocyte-stimulating hormone; type: cell-based
Description: The 50% inhibitory concentration of cAMP production (IC50) according to the present invention regarding the compounds having a melanocyte-stimulating hormone (MSH) inhibitory activity is measured and defined as follows.
Namely, B16 melanoma cells are inoculated on a 12-well plate in such way that 1×10^4 cells are inoculated into 1 well, and cultured at 37° C. for 48 hours in the presence of 5% CO2. After the culturing, the wells are washed with 1 ml of a serum-free medium (serum-free D-MEM medium) per 1 well. Then, a serum-free medium containing 1 mM 3-isobutyl-1-methylxanthine, 10 nM melanocyte-stimulating hormone and a compound to be tested at a different concentration is added in an amount of 1 ml per 1 well, followed by incubation at 37° C. for 5 minutes. After the incubation, the medium is completely removed from the plate, 1 ml of ice-cooled 2.5% perchloric acid is exactly added thereto, and then the whole is incubated for 30 minutes under ice-cooling to extract cAMP from within the cells. After the incubation, the extract solution is neutralized by adding 4.2M potassium hydroxide solution in an amount of […] per 1 well.
The neutralized extract solution is centrifuged at 4° C. at 12,000 rpm for 10 minutes, and the amount of cAMP in the supernatant is quantitatively determined using “Biotrak cAMP EIA System” (manufactured by Amersham Pharmacia Biotech), as follows. By the way, all the operations are carried out at 5° C. or lower. First, cAMP authentic samples are prepared so as to be 0 to 3200 fM, and each sample is placed in an amount of 100 μl in a 96-well plate. Then, 200 μl of 0.05M acetate buffer (pH 5.8, containing 0.02% serum and 0.01% antiseptic agent) is placed in an NSB well (Non-specific Binding Well) and 100 μl in a blank well. In a sample well is placed 100 μl of a sample to be evaluated. In each of all the wells except for the blank well and the NSB well is added 100 μl of antiserum. The 96-well plate is capped, slowly shaken, and incubated at 3 to 5° C. for 2 hours. After the incubation, 50 μl of cAMP peroxidase is added to each of all the wells except for the blank well. The plate is capped and incubated at 3 to 5° C. for 1 hour. After the incubation, each of all the wells is washed four times with 400 μl in total of 0.01M phosphate buffer (pH 7.5, containing 0.05% “Tween 20”). The liquid remaining in the wells is removed by placing the plate in such manner that the opening parts of the wells face downward, and patting the plate on a paper.
To each of all the wells is added 150 μl of an enzyme substrate, and the plate is shaken at 15 to 30° C. for 1 hour. After the shaking, 100 μl of 1 M sulfuric acid is added to each well, and absorbance at 450 nm is measured. A calibration curve is prepared from the absorbance of the cAMP authentic samples and the amount of cAMP of each sample is determined.
The 50% inhibitory concentration of cAMP production (IC50) is defined by the value in terms of nM unit, of a 50% inhibitory concentration obtained by the above procedures, of a test compound against cAMP production with 10 nM melanocyte-stimulating hormone.
According to the method of measuring the 50% inhibitory concentration of cAMP production (IC50) explained in the above, IC50 was measured on the agents listed in following Table 2, i.e., D-1-Nal-Arg-LeuNH2, D-2-Nal-Arg-LeuNH2, L-1-Nal-Arg-LeuNH2 and D-Trp-Arg-LeuNH2.

[1] = test system: Weiser-Maples brown guinea pigs; experiment: Inhibitory test of melanocyte-stimulating hormone in living body (test of suppressing pigmentation in brown guinea pigs); type: in vivo, guinea pig; design: key: ◯: positive pigmentation suppressing effect; X: no pigmentation suppressing effect; —: not tested; conditions: 50 mM in 50% ethanol-water applied to skin, UVB irradiation, ΔL* vs 50% ethanol
Description: Inhibitory test of melanocyte-stimulating hormone was carried out by repeating the application of each test compound on a guinea pig and irradiation with ultraviolet rays, followed by measuring the degree of coloring, as follows.
D-2-Nal-Arg-LeuNH2 (50 mM, dissolved in 50% ethanol-water) and D-Trp-Arg-LeuNH2 (50 mM, dissolved in 50% ethanol-water) were used, and 50% ethanol-water was used as the control.
Male Weiser-Maples brown guinea pigs (4 weeks old) were purchased from Tokyo Experimental Animal K.K. and used after pre-reared for 7 weeks.
The brown guinea pigs were individually fixed by means of a fixing instrument and shaved in a square shape of about 3 cm×3 cm on their back with the use of a pair of hair clippers “THRIVE MODEL 6000AD” (manufactured by Natsume Seisakusyo) and “Home Hair Clipper Ceramic ER722” (manufactured by National) and an electric shaver “Dual 1500AC/RC” (manufactured by BRAUN). The skin after shaved was wiped with a water-soaked absorbent cotton, and the moisture was removed with a paper towel “KIMWIPE” (manufactured by CRECIA).
The skin of the back of the shaven brown guinea pigs was wiped with an ethanol-soaked absorbent cotton, and the horny layer having an area of about 2 cm×2 cm was subjected to tape stripping five times with the use of an adhesive tape “Scotch 313D” (manufactured by 3M). […]

[2] = Test of stability during storage (coloring of aqueous 0.1% solution, APHA method); type: physicochemical; conditions: for Degree of coloring (APHA Standard color): aqueous 0.1% solution stored at 4° C. for 6 months; for Stability during storage (evaluation class): class of degree of coloring, APHA standard colors
Description: An aqueous 0.1% solution of D-2-Nal-Arg-LeuNH2 of the present invention, and that of D-Trp-Arg-LeuNH2 which is a known melanocyte-stimulating hormone inhibitor were prepared and stored at 4° C. for 6 months, respectively. The stability during storage was evaluated by comparing the degree of coloring with standard colors of APHA (American Public Healthy Association) method.

[3] = B16 melanoma cells, 10 nM melanocyte-stimulating hormone, 5 min incubation, read-out: 50% inhibitory concentration (IC50) of cAMP production
[4] = class of 50% inhibitory concentration in the test, read-out: MSH inhibitory activity (evaluation class)

SMILES | Melanin formation suppressing activity (evaluation class) (Human melanocytes) | Suppression rate of the melanin formation (Human melanocytes; concentration 20 μM) [%] | Suppression rate of the melanin formation (Human melanocytes; concentration 200 μM) [%] | IC50 (B16 melanoma cells; [3]) [µM] | IC50 (B16 melanoma cells; [4]) [µM] | Suppression rate of the melanin formation (Human melanocytes; concentration 2 μM) [%] | Brown Guinea pig pigmentation suppressing test (evaluation) [1] | Degree of coloring (APHA Standard color) [2] [APHA] | Stability during storage (evaluation class) [2]
CC(C)C[C@H](NC(=O)[C@H](CCCNC(=N)N)NC(=O)[C@H](N)Cc1cccc2ccccc12)C(N)=O [D-1-Nal-Arg-LeuNH2] (H-[d1Nal]-Arg-Leu-NH2) | B (11 to 100 μM) | 43 | 52 | 0.54 | 0.101 to 1 |  |  |  | 
CC(C)C[C@H](NC(=O)[C@H](CCCNC(=N)N)NC(=O)[C@H](N)Cc1ccc2ccccc2c1)C(N)=O [D-2-Nal-Arg-LeuNH2] (H-[d2Nal]-Arg-Leu-NH2) | A (1 to 10 μM) | 51 | 70 | 0.042 | ≤ 0.1 | 49 | ◯ | 20 | A (20 or less)
CC(C)C[C@H](NC(=O)[C@H](CCCNC(=N)N)NC(=O)[C@H](N)Cc1c[nH]c2ccccc12)C(N)=O [D-Trp-Arg-LeuNH2, reference compound] (H-[dW]-Arg-Leu-NH2) | B (11 to 100 μM) | 24 | 57 | 0.23 | 0.101 to 1 |  | X | 200 | C (101 or more)
CC(C)C[C@H](NC(=O)[C@H](CCCNC(=N)N)NC(=O)[C@@H](N)Cc1cccc2ccccc12)C(N)=O [L-1-Nal-Arg-LeuNH2] (H-[1Nal]-Arg-Leu-NH2) | B (11 to 100 μM) | 8 | 28 | 0.47 | 0.101 to 1 |  |  |  | 

— patent publication US7375085B1, “Melanocyte-stimulating hormone inhibitors” (Ajinomoto Co., Inc., priority 1999, dated 2008)
